From patent publication US6896895B2, “Carotenoid esters, carotenoid-enriched feeds, and methods of pigmenting foods and foodstuffs” (DSM IP Assets B.V., priority 2000, dated 2005)

Key:
[1] = Carotenoid ester content and deposition rate in egg yolk of laying hens (HPLC); assay type: in vivo, laying hens (ISA Brown); set-up: Deposition Rate Value: unit not given here; details: for Deposition Rate Target Values % of Controls / Ethyl β-apo-8′-carotenoate Equivalents % of Controls / Deposition Rate % of Controls / Deposition Rate Target Values / Ethyl β-apo-8′-carotenoate Equivalents / Deposition Rate Value: egg yolk; for Deposition Rate % of Controls / Deposition Rate Value: Table 9; for concentration in the egg yolk: versus the control
Procedure, shortened: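 Hens were first depleted for at least 28 days on a low-carotenoid basal diet (<2 mg total xanthophylls/kg, also the control diet), then fed mash supplemented with the pigments ad libitum for three weeks. Pooled homogenised yolk was extracted with ethanol/n-hexane and analysed by HPLC, calibrated with all-E ethyl β-apo-8′-carotenoate. Response factors were adjusted by molecular weight, and Z-isomers were corrected by a factor of 1.4.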

egg yolk = assay: Egg yolk colour: reflectance colorimetry and Roche Yolk Colour Fan; assay type: in vivo, laying hens (ISA Brown); set-up: key to Chroma C*ab Value: CIE L*a*b* chroma C* value; key to Color Fan Value / Color Fan Value Value: visual score on Roche Yolk Colour Fan (RYCF, 1993 version); key to Color Fan Value, Pigmentation: − = off color; + = good color; details: laying hens; for Color Fan Value % of Controls / Chroma C*ab % of Controls / Color Hue h*ab % of Controls / Chroma C*ab Value / Color Fan Value / Color Fan Value, Pigmentation / Color Hue h*ab Value / Color Fan Value Value: egg yolk; for quality in terms of deposition rate and color intensity (chroma C*a*b*) in the egg yolk: compared to the control
Procedure, shortened: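 ISA Brown laying hens, depleted at least 28 days on low-carotenoid basal diet (<2 mg xanthophylls/kg), fed pigment-supplemented mash ad libitum for three weeks. Pooled yolks of three to six eggs scored with Roche Yolk Colour Fan and measured by reflectance colorimetry (D65, 8°) as CIE L*a*b*, h*, C*; values average four yolk pools.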

[2] = trial H-25/99, 5.0 mg/kg feed, Table 9

Row | Deposition Rate Target Values % of Controls ([1]; average over doses, Table 7) [%] | Ethyl β-apo-8′-carotenoate Equivalents % of Controls ([1]; average over doses, Table 7) [%] | Deposition Rate % of Controls ([1]; average over doses) [%] | Deposition Rate Target Values ([1]; trial H-25/99, 5.0 mg/kg feed) [%] | Deposition Rate Target Values % of Controls ([1]; trial H-25/99, 5.0 mg/kg feed) [%] | Ethyl β-apo-8′-carotenoate Equivalents ([1]; trial H-25/99, 5.0 mg/kg feed) [mg/kg] | Ethyl β-apo-8′-carotenoate Equivalents % of Controls ([1]; trial H-25/99, 5.0 mg/kg feed) [%] | Deposition Rate % of Controls ([1]; trial H-25/99, 5.0 mg/kg feed) [%] | Deposition Rate Value ([1]; trial H-25/99, 5.0 mg/kg feed) | concentration in the egg yolk [1] | Structure (SMILES) | Color Fan Value % of Controls (egg yolk; average over doses, Table 7) [%] | Chroma C*ab % of Controls (egg yolk; average over doses, Table 9) [%] | Color Fan Value % of Controls (egg yolk; average over doses, Table 9) [%] | Color Hue h*ab % of Controls (egg yolk; average over doses, Table 9) [%] | Chroma C*ab % of Controls (egg yolk; trial H-25/99, 5.0 mg/kg feed) [%] | Chroma C*ab Value (egg yolk; trial H-25/99, 5.0 mg/kg feed) | Color Fan Value (egg yolk; trial H-25/99, 5.0 mg/kg feed) | Color Fan Value % of Controls (egg yolk; trial H-25/99, 5.0 mg/kg feed) [%] | Color Fan Value, Pigmentation (egg yolk; trial H-25/99, 5.0 mg/kg feed) | Color Hue h*ab % of Controls (egg yolk; trial H-25/99, 5.0 mg/kg feed) [%] | also measured
1 | 119 | 106 | 119 | 60.7 | 119 | 16.6 | 106 | 119 | 61 | in the range of the control | CC(C=CC=C(C)C=CC1=C(C)CCCC1(C)C)=CC=CC=C(C)C=CC=C(C)C(=O)OC(C)(C)C [compound (18), tert. butyl beta-apo-8′-carotenoate] | 87 | 101 | 87 | 85 | 101 | 52 | 7 | 87 | + | 85 | Color Hue h*ab Value (egg yolk; trial H-25/99, 5.0 mg/kg feed): 74; Color Fan Value % of Controls (egg yolk; [2]): 87%; Color Fan Value Value (egg yolk; [2]): 7; Color Fan Value, Pigmentation (egg yolk; [2]): +; quality in terms of deposition rate and color intensity (chroma C*a*b*) in the egg yolk (egg yolk): comparable quality
2 | 101 | 94 | 101 | 51.2 | 101 | 14.6 | 94 | 101 | 51 | in the range of the control | CCCC(C)OC(=O)C(C)=CC=CC(C)=CC=CC=C(C)C=CC=C(C)C=CC1=C(C)CCCC1(C)C (stereo not drawn) [compound (19), 2-pentyl beta-apo-8′-carotenoate] | 87 | 113 | 87 | 96 | 113 | 58 | 7 | 87 | + | 96 | Color Hue h*ab Value (egg yolk; trial H-25/99, 5.0 mg/kg feed): 82; Color Fan Value % of Controls (egg yolk; [2]): 87%; Color Fan Value Value (egg yolk; [2]): 7; Color Fan Value, Pigmentation (egg yolk; [2]): +; quality in terms of deposition rate and color intensity (chroma C*a*b*) in the egg yolk (egg yolk): comparable quality
